{"source": "patent US12673067B2", "about": "“Methods, agents, and devices for local neuromodulation of autonomic nerves” (Tulavi Therapeutics, Inc., priority 2016, dated 2026)", "origin": "cited, not measured here", "key": {"[1]": {"target": "T1, FFA1 (Homo sapiens, UniProt O14842)", "T1 sequence (O14842 whole entry)": "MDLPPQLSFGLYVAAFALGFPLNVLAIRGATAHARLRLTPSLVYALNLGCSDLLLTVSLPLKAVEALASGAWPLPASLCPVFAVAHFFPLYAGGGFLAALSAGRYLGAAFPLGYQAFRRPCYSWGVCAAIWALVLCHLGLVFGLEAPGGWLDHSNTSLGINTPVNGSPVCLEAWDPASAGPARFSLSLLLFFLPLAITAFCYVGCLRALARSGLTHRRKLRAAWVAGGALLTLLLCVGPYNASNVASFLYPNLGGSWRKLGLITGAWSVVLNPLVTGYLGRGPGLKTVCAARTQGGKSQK", "conditions": "Ca2+ mobilization, fluorescent indicator"}, "[2]": {"target": "T2, GPR120 (Homo sapiens, UniProt Q5NUL3)", "T2 sequence (Q5NUL3 1-361)": "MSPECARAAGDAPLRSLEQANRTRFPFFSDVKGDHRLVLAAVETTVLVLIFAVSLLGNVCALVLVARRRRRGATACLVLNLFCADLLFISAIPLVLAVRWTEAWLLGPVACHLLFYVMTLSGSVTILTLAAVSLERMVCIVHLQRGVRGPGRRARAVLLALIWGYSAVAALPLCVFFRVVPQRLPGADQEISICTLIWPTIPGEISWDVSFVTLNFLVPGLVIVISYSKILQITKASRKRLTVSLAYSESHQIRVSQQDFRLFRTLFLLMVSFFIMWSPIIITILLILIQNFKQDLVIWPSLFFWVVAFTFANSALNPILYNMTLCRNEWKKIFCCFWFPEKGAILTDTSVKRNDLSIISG", "conditions": "Ca2+ mobilization, fluorescent indicator"}, "[3]": {"target": "T3, PPARα (Homo sapiens, UniProt Q07869)", "T3 sequence (Q07869 1-468)": "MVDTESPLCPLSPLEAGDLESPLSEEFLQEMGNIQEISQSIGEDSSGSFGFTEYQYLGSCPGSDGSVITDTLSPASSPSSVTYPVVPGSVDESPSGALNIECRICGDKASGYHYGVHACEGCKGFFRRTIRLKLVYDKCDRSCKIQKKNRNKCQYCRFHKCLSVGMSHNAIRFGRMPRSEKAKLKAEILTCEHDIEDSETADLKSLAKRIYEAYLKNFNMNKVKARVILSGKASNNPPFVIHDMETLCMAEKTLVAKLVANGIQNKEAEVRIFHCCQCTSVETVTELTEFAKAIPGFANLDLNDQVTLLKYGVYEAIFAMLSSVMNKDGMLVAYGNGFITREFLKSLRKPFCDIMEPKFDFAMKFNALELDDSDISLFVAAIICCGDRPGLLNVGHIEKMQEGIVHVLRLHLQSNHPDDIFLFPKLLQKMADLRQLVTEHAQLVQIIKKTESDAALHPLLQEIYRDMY"}, "[4]": {"target": "T4, PPARγ (Homo sapiens, UniProt P37231)", "T4 sequence (P37231 1-505)": "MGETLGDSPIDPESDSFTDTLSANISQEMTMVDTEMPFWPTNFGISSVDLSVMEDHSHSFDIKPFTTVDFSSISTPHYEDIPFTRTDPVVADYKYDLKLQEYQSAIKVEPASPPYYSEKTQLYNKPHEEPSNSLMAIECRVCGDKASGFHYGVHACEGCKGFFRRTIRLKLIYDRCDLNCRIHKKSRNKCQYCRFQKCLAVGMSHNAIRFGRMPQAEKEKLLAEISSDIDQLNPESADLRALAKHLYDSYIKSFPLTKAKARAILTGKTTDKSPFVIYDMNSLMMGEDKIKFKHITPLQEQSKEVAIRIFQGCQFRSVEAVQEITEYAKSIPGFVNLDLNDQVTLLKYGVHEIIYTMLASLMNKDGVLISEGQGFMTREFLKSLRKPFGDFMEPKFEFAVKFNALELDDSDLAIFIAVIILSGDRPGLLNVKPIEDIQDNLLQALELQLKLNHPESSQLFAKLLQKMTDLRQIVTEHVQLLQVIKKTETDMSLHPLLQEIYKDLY"}, "[5]": {"target": "T5, PPARδ (Homo sapiens, UniProt Q03181)", "T5 sequence (Q03181 1-441)": "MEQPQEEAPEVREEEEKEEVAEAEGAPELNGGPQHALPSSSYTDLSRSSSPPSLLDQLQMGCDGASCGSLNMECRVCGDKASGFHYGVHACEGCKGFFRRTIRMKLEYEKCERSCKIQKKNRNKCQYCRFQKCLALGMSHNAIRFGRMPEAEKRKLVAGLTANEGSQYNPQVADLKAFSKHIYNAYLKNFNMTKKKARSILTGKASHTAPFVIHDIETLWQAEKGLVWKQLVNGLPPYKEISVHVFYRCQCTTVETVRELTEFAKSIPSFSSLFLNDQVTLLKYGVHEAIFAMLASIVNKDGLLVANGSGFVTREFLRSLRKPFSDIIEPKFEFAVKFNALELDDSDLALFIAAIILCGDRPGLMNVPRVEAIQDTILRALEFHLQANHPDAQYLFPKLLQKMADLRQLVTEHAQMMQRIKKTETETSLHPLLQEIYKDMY"}, "[6]": {"target": "T6, KCC2 (Homo sapiens, UniProt Q9H2X9)", "T6 sequence (Q9H2X9 1-1139)": "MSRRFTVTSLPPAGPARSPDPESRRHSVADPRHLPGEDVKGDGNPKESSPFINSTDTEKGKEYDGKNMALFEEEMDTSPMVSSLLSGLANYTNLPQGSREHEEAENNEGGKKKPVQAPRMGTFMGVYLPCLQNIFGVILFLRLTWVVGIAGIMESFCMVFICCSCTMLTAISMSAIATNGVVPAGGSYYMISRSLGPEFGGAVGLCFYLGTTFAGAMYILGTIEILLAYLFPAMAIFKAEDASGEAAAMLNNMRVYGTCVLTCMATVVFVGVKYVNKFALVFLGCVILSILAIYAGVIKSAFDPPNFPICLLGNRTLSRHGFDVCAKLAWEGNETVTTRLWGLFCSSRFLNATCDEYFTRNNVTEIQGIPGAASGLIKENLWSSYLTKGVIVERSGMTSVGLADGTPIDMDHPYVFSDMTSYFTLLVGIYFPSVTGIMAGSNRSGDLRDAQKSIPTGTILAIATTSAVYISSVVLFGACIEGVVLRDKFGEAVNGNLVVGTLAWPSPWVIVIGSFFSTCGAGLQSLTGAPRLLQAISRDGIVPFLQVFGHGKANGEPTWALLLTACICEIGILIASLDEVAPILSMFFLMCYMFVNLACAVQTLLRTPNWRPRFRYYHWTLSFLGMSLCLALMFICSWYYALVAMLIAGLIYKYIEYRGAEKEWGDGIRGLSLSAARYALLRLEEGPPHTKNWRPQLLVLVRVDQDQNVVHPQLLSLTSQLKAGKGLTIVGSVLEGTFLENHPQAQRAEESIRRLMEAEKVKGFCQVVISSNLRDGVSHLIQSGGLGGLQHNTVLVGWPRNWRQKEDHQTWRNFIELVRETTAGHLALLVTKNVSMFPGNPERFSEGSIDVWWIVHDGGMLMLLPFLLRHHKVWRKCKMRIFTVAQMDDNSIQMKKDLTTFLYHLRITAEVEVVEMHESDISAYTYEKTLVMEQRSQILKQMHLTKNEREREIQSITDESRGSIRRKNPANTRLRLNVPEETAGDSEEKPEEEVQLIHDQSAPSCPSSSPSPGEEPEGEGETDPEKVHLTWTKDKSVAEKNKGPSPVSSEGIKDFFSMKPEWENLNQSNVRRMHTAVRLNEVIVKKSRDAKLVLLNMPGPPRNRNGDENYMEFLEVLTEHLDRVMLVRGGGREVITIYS"}, "[7]": {"tested_on": "Na/K ATPase"}, "[8]": {"tested_on": "Na+-H+ exchange (NHE)"}, "[9]": {"tested_on": "Aquaporin 4 (AQP4)", "conditions": "pretreatment, mouse focal cerebral ischemia"}, "[10]": {"target": "T7, H+K+ATPase (Oryctolagus cuniculus, UniProt P27112)", "T7 construct": "a preparation of microsomal membranes from rabbit fundic mucosa; from tissue; host or cells: rabbit fundic mucosa, microsomal membranes", "T7 sequence (P27112 whole entry)": "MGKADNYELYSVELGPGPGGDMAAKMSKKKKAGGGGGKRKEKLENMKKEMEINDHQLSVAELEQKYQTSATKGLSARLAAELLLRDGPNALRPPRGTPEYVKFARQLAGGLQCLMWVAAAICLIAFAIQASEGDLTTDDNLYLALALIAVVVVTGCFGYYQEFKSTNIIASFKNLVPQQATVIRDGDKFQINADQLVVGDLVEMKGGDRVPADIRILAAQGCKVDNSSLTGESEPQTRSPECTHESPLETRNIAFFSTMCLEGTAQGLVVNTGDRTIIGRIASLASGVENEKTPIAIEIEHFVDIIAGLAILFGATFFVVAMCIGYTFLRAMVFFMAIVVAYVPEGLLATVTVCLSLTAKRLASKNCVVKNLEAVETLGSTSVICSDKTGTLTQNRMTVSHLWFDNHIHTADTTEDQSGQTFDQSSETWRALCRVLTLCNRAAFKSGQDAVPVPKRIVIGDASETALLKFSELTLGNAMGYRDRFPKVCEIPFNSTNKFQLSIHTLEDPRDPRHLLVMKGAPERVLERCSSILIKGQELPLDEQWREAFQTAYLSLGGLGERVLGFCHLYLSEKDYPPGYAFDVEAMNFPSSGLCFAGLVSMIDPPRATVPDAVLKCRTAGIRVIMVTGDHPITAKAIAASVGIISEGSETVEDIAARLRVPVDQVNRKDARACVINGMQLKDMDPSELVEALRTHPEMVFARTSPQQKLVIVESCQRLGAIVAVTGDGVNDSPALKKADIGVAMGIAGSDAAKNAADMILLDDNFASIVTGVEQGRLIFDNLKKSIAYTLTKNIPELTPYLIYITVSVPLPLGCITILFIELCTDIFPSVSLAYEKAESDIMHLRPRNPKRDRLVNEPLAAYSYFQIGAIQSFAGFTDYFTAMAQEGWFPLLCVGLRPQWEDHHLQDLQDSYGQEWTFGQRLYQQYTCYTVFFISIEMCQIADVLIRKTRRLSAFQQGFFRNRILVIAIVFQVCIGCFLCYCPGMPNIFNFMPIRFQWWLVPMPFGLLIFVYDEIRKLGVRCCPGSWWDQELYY", "T7 sequence (P18597 whole entry partner)": "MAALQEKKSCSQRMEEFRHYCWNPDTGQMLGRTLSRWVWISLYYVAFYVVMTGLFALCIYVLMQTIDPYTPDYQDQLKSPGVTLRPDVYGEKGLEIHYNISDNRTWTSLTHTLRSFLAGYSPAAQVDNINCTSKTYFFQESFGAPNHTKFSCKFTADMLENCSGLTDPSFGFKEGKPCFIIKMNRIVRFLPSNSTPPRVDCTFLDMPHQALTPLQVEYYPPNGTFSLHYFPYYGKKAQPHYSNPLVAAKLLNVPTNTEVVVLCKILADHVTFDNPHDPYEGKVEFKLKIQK", "conditions": "microsomal membranes from rabbit fundic mucosa; read-out: IC50, inhibition of isolated H+K+ATPase enzyme activity"}, "[11]": {"conditions": "rats"}, "[12]": {"tested_on": "human platelets"}, "[13]": {"conditions": "in vivo"}, "[14]": {"target": "T1, FFA1", "conditions": "footnote a: ERK activation (Smith 2009) or aequorin reporter (Kotarsky 2003)"}, "[15]": {"tested_on": "organic anion transporters (OAT)", "conditions": "at 0.5-1 mM"}, "[16]": {"tested_on": "cultured mammalian cells"}, "[17]": {"tested_on": "stellate ganglion", "conditions": "dog, in vivo"}}, "note": "Read-outs that look alike come from different tables or passages of the source."}
{"molecule": "O=C(O)CCCc1ccc(OCCN(c2ccccc2)c2ccccn2)cc1", "note": "[NCG21 (Cpd 12)]", "values": [{"measurement": "FFA1 pEC50", "setting": "[1]", "value": 4.7}, {"measurement": "GPR120 pEC50", "setting": "[2]", "value": 5.9}, {"measurement": "PPARα agonist activity", "setting": "[3]; at 100 μM", "value": "Lacks PPARα, δ, and γ"}, {"measurement": "PPARγ agonist activity", "setting": "[4]; at 100 μM", "value": "Lacks PPARα, δ, and γ"}, {"measurement": "PPARδ agonist activity", "setting": "[5]; at 100 μM", "value": "Lacks PPARα, δ, and γ"}]}
{"molecule": "Cc1csc(NC(=O)CSc2ccc(-c3ccccc3)nn2)n1", "note": "[VU024055 1]", "values": [{"measurement": "selectivity for KCC2 over NKCCI", "setting": "[6]", "value": "selective"}]}
{"molecule": "O=c1c2ccc(O)c(O)c2oc2c(O)c(O)ccc12", "note": "[3,4,5,6-Tetrahydroxyxanthone]", "values": [{"measurement": "affinity of Na/K ATPase pump inhibition", "setting": "[7]", "value": "comparable to ouabain"}]}
{"molecule": "Cc1ccc(CN(Cc2ccc(-c3ccccc3S(=O)(=O)NC#N)cc2)C(=O)c2ccccc2Cl)cc1", "note": "[S0859]", "values": [{"measurement": "inhibition of Na+-H+ exchange (NHE)", "setting": "[8]", "value": "does not inhibit"}]}
{"molecule": "CC/C=C\\C/C=C\\C/C=C\\C/C=C\\C/C=C\\C/C=C\\CCC(=O)O", "note": "[DHA (C22:6), DHA]", "values": [{"measurement": "FFA1 pEC50", "setting": "[1]", "value": "5.4-6.0"}, {"measurement": "GPR120 pEC50", "setting": "[2]", "value": 5.4}]}
{"molecule": "O=C(Nc1nncs1)c1cccnc1", "note": "[TGN-020]", "values": [{"measurement": "volume of brain edema associated with ischemic injury", "setting": "[9]", "value": "significantly reduced"}]}
{"molecule": "Cc1nc2c(OCc3ccccc3)cccn2c1CC#N", "note": "[SCH-28080]", "values": [{"measurement": "IC50", "setting": "[10]", "value": 2.5, "unit": "µM"}]}
{"molecule": "O=C(O)CCc1ccc(NCc2cccc(Oc3ccccc3)c2)cc1", "note": "[GW9508]", "values": [{"measurement": "FFA1 pEC50", "setting": "[1]", "value": "6.6-7.3"}, {"measurement": "pEC50 for PPARα", "setting": "[3]", "value": 4.0}, {"measurement": "pEC50 for PPARγ", "setting": "[4]", "value": 4.9}, {"measurement": "pEC50 for PPARδ", "setting": "[5]", "value": 4.0}]}
{"molecule": "CCCCCCCC/C=C\\CCCCCCCC(=O)O", "note": "[Oleic acid (C18:1), Oleic acid]", "values": [{"measurement": "FFA1 pEC50", "setting": "[1]", "value": "4.4-5.7"}]}
{"molecule": "N=C(N)NC(=O)c1cnn(-c2cccc3ncccc23)c1C1CC1", "note": "[Zoniporide]", "values": [{"measurement": "cardiac contractile dysfunction", "setting": "[11]", "value": "attenuates"}, {"measurement": "swelling of human platelets", "setting": "[12]", "value": "inhibits"}, {"measurement": "peripheral sensory axonopathy", "setting": "[13]", "value": "causes peripheral sensory axonopathy"}]}
{"molecule": "Cc1nc2c(OCc3ccccc3)nccn2c1N", "note": "[SCH 32651]", "values": [{"measurement": "IC50", "setting": "[10]", "value": 200, "unit": "µM"}]}
{"molecule": "CCCCCCCCCCCCCCCC(=O)O", "note": "[Palmitic acid (C18:0), Palmitic acid]", "values": [{"measurement": "FFA1 pEC50", "setting": "[1]", "value": "5.2-5.3"}]}
{"molecule": "CN(CCOc1ccc(CC2SC(=O)NC2=O)cc1)c1ccccn1", "note": "(centres unmarked) [Rosiglitazone]", "values": [{"measurement": "FFA1 pEC50", "setting": "[14]", "value": "5.0-5.6^a"}]}
{"molecule": "C=C1C[C@@]23CC[C@H]4[C@@](C)(CCC[C@@]4(C)C(=O)O[C@@H]4O[C@H](CO)[C@@H](O)[C@H](O)[C@H]4O)[C@@H]2CC[C@]1(O[C@@H]1O[C@H](CO)[C@@H](O)[C@H](O)[C@H]1O[C@@H]1O[C@H](CO)[C@@H](O)[C@H](O)[C@H]1O)C3", "note": "[Stevioside]", "values": [{"measurement": "interaction with organic anion transporters (OAT)", "setting": "[15]", "value": "no interaction"}, {"measurement": "genotoxic effects", "setting": "[16]", "value": "genotoxic effects"}]}
{"molecule": "NGF: nerve growth factor injected into the stellate ganglion of dogs", "values": [{"measurement": "QTc", "setting": "[17]", "value": "shortened"}, {"measurement": "QTc interval", "setting": "[17]", "value": "prolonged"}, {"measurement": "SCD", "setting": "[17]", "value": "did not cause SCD"}, {"measurement": "risk of SCD", "setting": "[17]", "value": 50, "unit": "%"}]}
